Molecules are shown by their SMILES. Where a name gives a salt, the structure may show the parent alone.

For 28 molecules, IC50 results are on record in patent US9079866B2, “Flap modulators” (JANSSEN PHARMACEUTICA NV, priority 2013, dated 2015).

In one test the test system is leukotriene pathway in human whole blood (LTB4 levels). The test is described as follows: Human whole blood assay (A23187-stimulated LTB4). The following applies: Homo sapiens, human whole blood diluted 1:1, A23187-stimulated; read-out: LTB4 IC50 1:1. It is filed as cell-based. The method, then: The ability of the compounds of the present invention to treat a FLAP-mediated disease and/or disorder, or associated symptoms or complications thereof, was determined using the following procedures. Binding assay data represent the average value obtained from two different assay plates, with samples run in duplicate on each plate. Human whole blood assay data represent a single replicate on an assay plate using whole blood from at least one healthy donor.
An in vitro cellular assay was performed using human whole blood collected in heparin-containing tubes, which was used to test the ability of compounds to modulate the leukotriene pathway in human whole blood. The blood was diluted 1:1 in RPMI medium, pre-incubated for 15 min at 37° Celsius with test compounds at various concentrations, and then stimulated with calcium ionophore, A23187 (7 μg/mL), for 30 min at 37° Celsius. The samples were then centrifuged and plasma was removed. The plasma was diluted in assay buffer and LTB4 levels were measured using a commercial kit (Enzo Life Sciences). The concentration of each compound that was required for half-maximal inhibition (modulation) of recombinant enzyme activity (IC50) was calculated by a 4-parameter equation using the program GraphPad Prism (GraphPad software).
For `Fc1cc(-c2cccnc2OCC2CC2)ccc1-c1cnc2[nH]ccc2n1` [Example 400, 2-{4-[2-(Cyclopropylmethoxy)pyridin-3-yl]-2-fluorophenyl}-5H-pyrrolo[2,3-b]pyrazine], the IC50 – broadly, the concentration that gives 50% inhibition – was found to be 729 nM. The same measure, in the same setting: the value for `Nc1cnc(-c2ccc(-c3cccnc3OC3CCCCC3)cc2F)cn1` [Example 403, 5-{4-[2-(Cyclohexyloxy)pyridin-3-yl]-2-fluorophenyl}pyrazin-2-amine] was 389 nM; that for `N#Cc1nc(-c2ccc(-c3ccccc3S(=O)(=O)NCCO)cc2F)cnc1N` [Example 413, 4′-(5-Amino-6-cyanopyrazin-2-yl)-3′-fluoro-N-(2-hydroxyethyl)biphenyl-2-sulfonamide] was 448 nM. Regarding `N#Cc1nc(-c2ccc(-c3ccccc3S(=O)(=O)N3CCNC(=O)C3)cc2F)cnc1N` [Example 414, 3-Amino-6-{3-fluoro-2′-[(3-oxopiperazin-1-yl)sulfonyl]biphenyl-4-yl}pyrazine-2-carbonitrile], the IC50 came out at 120 nM. On to `CC(C)(C)NS(=O)(=O)c1ccccc1-c1ccc(-c2ccc3[nH]ccc3c2)c(F)c1` [Example 421, N-tert-Butyl-3′-fluoro-4′-(1H-indol-5-yl)biphenyl-2-sulfonamide], for which the IC50 was over 10000 nM. Regarding `CC(C)(C)NS(=O)(=O)c1ccccc1-c1ccc(-c2cnc(N)c(F)c2)c(F)c1` [Example 430, 4′-(6-Amino-5-fluoropyridin-3-yl)-N-tert-butyl-3′-fluorobiphenyl-2-sulfonamide], the IC50 amounted to 59 nM. In the case of `Cc1nc(-c2ccc(-c3ccccc3S(N)(=O)=O)cc2F)cnc1N` [Example 446, 4′-(5-Amino-6-methylpyrazin-2-yl)-3′-fluorobiphenyl-2-sulfonamide], the IC50 came out at 1370 nM. As for `CC(C)(C)NS(=O)(=O)c1ccccc1-c1ccc(-c2cc(N)c3[nH]ccc3c2)c(F)c1` [Example 458, 4′-(7-Amino-1H-indol-5-yl)-N-tert-butyl-3′-fluorobiphenyl-2-sulfonamide], the IC50 came to 53 nM. On the same count and under the same terms, the value for `Nc1cnc(-c2ccc(-c3ccccc3S(N)(=O)=O)c(F)c2F)cn1` [Example 464, 4′-(5-Aminopyrazin-2-yl)-2′,3′-difluorobiphenyl-2-sulfonamide] was over 10000 nM; that for `CC(C)(C)NS(=O)(=O)c1ccccc1-c1ccc(-c2cnc(N)nc2)c(F)c1F` [Example 466, 4′-(2-Aminopyrimidin-5-yl)-N-tert-butyl-2′,3′-difluorobiphenyl-2-sulfonamide trifluoroacetic acid salt] was 990 nM. Same read-out and setting: the value for `CS(=O)(=O)c1cc(F)ccc1-c1ccc(-c2cnc3[nH]ccc3n2)c(F)c1` [Example 489, 2-[3,4′-Difluoro-2′-(methylsulfonyl)biphenyl-4-yl]-5H-pyrrolo[2,3-b]pyrazine] was 307 nM; that for `Nc1cnc(-c2ccc(-c3ccccc3Oc3ncccn3)cc2F)cn1` [Example 526, 5-[3-Fluoro-2′-(pyrimidin-2-yloxy)biphenyl-4-yl]pyrazin-2-amine] was 19 nM; that for `N#Cc1cc(Oc2ccccc2-c2ccc(-c3cnc(N)nc3)c(F)c2)ccn1` [Example 538, 4-{[4′-(2-Aminopyrimidin-5-yl)-3′-fluorobiphenyl-2-yl]oxy}pyridine-2-carbonitrile] was 330 nM. In the case of `Nc1cnc(-c2ccc(-c3ccc(C(F)(F)F)cc3Oc3ncccn3)cc2F)cn1` [Example 551, 5-[3-Fluoro-2′-(pyrimidin-2-yloxy)-4′-(trifluoromethyl)biphenyl-4-yl]pyrazin-2-amine], the IC50 came out at 21 nM.

As to `COc1cc(C(F)(F)F)ccc1-c1ccc(-c2cnc(N)cn2)c(F)c1` [Example 553, 5-[3-Fluoro-2′-methoxy-4′-(trifluoromethyl)biphenyl-4-yl]pyrazin-2-amine], the IC50 is 430 nM.

Take `Nc1nc(-c2ccc(-c3ccccc3S(=O)(=O)N3CCCC3)cc2F)cs1` [Example 579, 4-[3-Fluoro-2′-(pyrrolidin-1-ylsulfonyl)biphenyl-4-yl]-1,3-thiazol-2-amine]: the IC50 came out at 1540 nM.

For `Nc1cnc(-c2ccc(-c3ccccc3O[C@H]3CCCNC3)cc2F)cn1` [Example 634, 5-{3-Fluoro-2′-[(3S)-piperidin-3-yloxy]biphenyl-4-yl}pyrazin-2-amine], the IC50 turned out to be 1470 nM.

The test is the same for the next values; noted with them: Homo sapiens, human whole blood diluted 1:1 in RPMI, A23187-stimulated LTB4; read-out: LTB4 IC50 1:1.
On to `Nc1ncc(-c2ccc(-c3ccccc3S(=O)(=O)N3CCCC3)cc2F)cn1` [Example 298, 5-[3-Fluoro-2′-(pyrrolidin-1-ylsulfonyl)biphenyl-4-yl]pyrimidin-2-amine trifluoroacetic acid salt], for which the IC50 was 1170 nM.

`N#CC1CN(S(=O)(=O)c2ccccc2-c2ccc(-c3cnc(N)nc3)c(F)c2)C1` [Example 314, 1-((4′-(2-Aminopyrimidin-5-yl)-3′-fluoro-[1,1′-biphenyl]-2-yl)sulfonyl)azetidine-3-carbonitrile]: the IC50 was 178 nM. As for `Nc1ncc(-c2ccc(-c3ccccc3S(=O)(=O)Cc3nc(C4CC4)no3)cc2F)cn1` [Example 321, 5-(2′-{[(3-Cyclopropyl-1,2,4-oxadiazol-5-yl)methyl]sulfonyl}-3-fluorobiphenyl-4-yl)pyrimidin-2-amine], the IC50 turned out to be 8490 nM.

As to `CC(C)(C)OC(=O)N1CC(O)(CNS(=O)(=O)c2ccccc2-c2ccc(-c3ccc(N)nc3)c(F)c2)C1` [Example 357, tert-Butyl 3-((4′-(6-aminopyridin-3-yl)-3′-fluoro-[1,1′-biphenyl]-2-ylsulfonamido)methyl)-3-hydroxyazetidine-1-carboxylate], the IC50 is 1130 nM. Same read-out and setting: the value for `NS(=O)(=O)c1ccccc1-c1ccc(-c2cnc3[nH]ccc3c2)c(F)c1` [Example 368, 3′-Fluoro-4′-(1H-pyrrolo[2,3-b]pyridin-5-yl)biphenyl-2-sulfonamide] was 178 nM. Still for that read-out and setting: the value for `O=S1(=O)CCN(S(=O)(=O)c2ccccc2-c2ccc(-c3cnc4[nH]ccc4n3)c(F)c2)CC1` [Example 382, 2-{2′-[(1,1-Dioxidothiomorpholin-4-yl)sulfonyl]-3-fluorobiphenyl-4-yl}-5H-pyrrolo[2,3-b]pyrazine] was 11 nM; that for `CSc1ccc(F)cc1-c1ccc(-c2cnc3[nH]ccc3n2)c(F)c1` [Example 383, 2-[3,5′-Difluoro-2′-(methylsulfanyl)biphenyl-4-yl]-5H-pyrrolo[2,3-b]pyrazine] was 1630 nM. Take `CCSc1ccccc1-c1ccc(-c2cnc3[nH]ccc3n2)c(F)c1` [Example 384, 2-[2′-(Ethylsulfanyl)-3-fluorobiphenyl-4-yl]-5H-pyrrolo[2,3-b]pyrazine]: the concentration for half-maximal inhibition (IC50) is 82 nM. On to `NC1CCN(S(=O)(=O)c2ccccc2-c2ccc(-c3cnc4c(c3)OCCN4)c(F)c2)CC1` [Example 389, 1-{[4′-(3,4-Dihydro-2H-pyrido[3,2-b][1,4]oxazin-7-yl)-3′-fluorobiphenyl-2-yl]sulfonyl}piperidin-4-amine], for which the IC50 turned out to be 137 nM. `C[C@H](CO)NS(=O)(=O)c1ccccc1-c1ccc(-c2cnc3c(c2)OCCN3)c(F)c1` [Example 390, 4′-(3,4-Dihydro-2H-pyrido[3,2-b][1,4]oxazin-7-yl)-3′-fluoro-N-[(1R)-2-hydroxy-1-methylethyl]biphenyl-2-sulfonamide]: the IC50 was found to be 10 nM.

The same test, now with this note: Homo sapiens, read-out: LTB4 IC50 1:1.
With `C[Si](C)(C)CCOCS(=O)(=O)c1ccccc1-c1ccc(-c2cnc(N)nc2)c(F)c1` [Example 338, 5-[3-Fluoro-2′-({[2-(trimethylsilyl)ethoxy]methyl}sulfonyl)biphenyl-4-yl]pyrimidin-2-amine formate salt], the IC50 amounted to 1090 nM.
